Data on 13 compounds can be found in article PMC9150179, “Clerodane Diterpenes from Casearia corymbosa as Allosteric GABAA Receptor Modulators” (Journal of Natural Products, 2022).

The target in assay [1] is GABAA receptor with the α1β2γ2 subunit composition (Homo sapiens, UniProt P14867+P18507+P47870). Nature of the assay: FLIPR assay on CHO cells stably expressing GABAA receptors. It counts as cell-based. The conditions noted are these: for % activation at single concentration: 20 μM compound, 200 μM GABA = 100%. As for the experimental part: Chinese hamster ovary (CHO) cells stably expressing the GABAA receptor with the α1β2γ2 subunit composition were passaged following an established protocol.[15],[16] The Chinese hamster ovary (CHO) cell line stably expressing the α1β2γ2 GABAA receptor subtype was cloned by B’SYS. Cells were cultured in a DMEM F-12 nutrient mixture supplemented with 10% FBS and 1% penicillin/streptomycin, under antibiotic pressure with 200 μg/mL of hygromycin B, 5 μg/mL of puromycin, and 100 μg/mL of zeocin. Cells were incubated in humidified air at 37 °C and 5% CO2, until 80–90% cell confluency. The passage numbers used in this study were from 10 to 30. Briefly, cells of ca. 80–90% confluency were seeded in a 96-well black-walled plate at a density of 60 000 cells/well in 100 μL of culture medium. The plate was incubated in humidified air at 37 °C and 5% CO2 for 24 h to allow cells to adhere. Then, 100 μL of FLIPR red dye solution (10.4 mL of assay buffer and one vial of red FLIPR assay reagent) was added to each well. The plate was further incubated for 30 min to allow the dye to penetrate into the cell membrane (assay plate). During the incubation time, a compound plate (clear 96-well plate) with controls, extracts, microfractions, compounds, and blanks was prepared (200 μL/well). Test solutions of extracts, microfractions, and compounds were prepared in buffer (consisting of 10% HBSS and 2% HEPES in sterilized H2O) and DMSO.
For the extract library screening, 2 μL of a 10 mg/mL DMSO stock solution of the extracts was added to 198 μL of buffer and transferred into the compound plate. The final test concentration for extracts was 20 μg/mL, with a final DMSO concentration in the assay of 0.1%. For extracts tested, active (>35% potentiation) serial dilutions were prepared from the stock solution to obtain final test concentrations of 0.16, 0.31, 0.63, 1.25, 2.50, 5.00, 10.00, and 20.00 μg/mL.
To test the pure compounds, stock solutions of 20 mM in DMSO were prepared. Compounds were assayed at a final concentration range of 0.16 to 20.00 μM (8× dilution series) or alternatively from 0.01 to 20.00 μM (12× dilution series). Aliquots of 200 μL from each dilution were transferred into wells of the compound plate and tested.
A series of controls was included in each assay. GABA at 200 μM was used to represent 100% activation of the receptor, while GABA at 2 μM represented the minimum activation (EC10). The positive control was diazepam at 20 μM in the presence of GABA at 2 μM, and buffer with 0.1% DMSO was used as a blank. GABA solutions (2 and 200 μM) were prepared from a 100 mM stock solution. In order to achieve a final test concentration of 20 μM diazepam in the assay plate, a 100 μM working solution was prepared from a stock solution (1 mg/mL in MeOH).
All test solutions were placed in the appropriate position in the compound plate (200 μL). Right after the final incubation period of the assay plate, the compound and assay plates were placed into a FlexStation 3 (Molecular Devices). The FlexStation parameters used in this study were as previously published.[14] Fluorescence was recorded for 500 s. For the first 25 s, the background fluorescence of the assay plate was measured (background signal). At 25 s, 50 μL of the test solutions (dilutions from compounds, extracts, microfractions, diazepam, and blanks) was transferred from the compound plate into the assay plate. The fluorescence was then recorded until 295 s. At 295 s, 25 μL of the GABA solutions (final concentration of 2 or 200 μM) was transferred into each well of the assay plate, and fluorescence was recorded until 500 s. The change in fluorescence intensity measured between 270 and 330 s was used for the calculation of percentage activation.

The target of the next assay is T1, GABAA receptors α1β2γ2S (Homo sapiens, UniProt P14867+P18507+P47870).
T1 construct: expressed in transfected cells; host or cells: Xenopus laevis oocytes, cRNA injection
Nature of the assay: Two-microelectrode voltage clamp assay with Xenopus laevis oocytes (α1β2γ2S). The format is cell-based. As for the experimental part:
(§1) Recombinant GABAA receptors (α1β2γ2s and α1β2) were expressed in X. laevis oocytes by cRNA injection, as previously described.[37] Two-microelectrode voltage clamp measurements were performed between days 1 and 5 after injection of cRNA of the respective subunits, using a TURBO TEC 03X amplifier (npi Electronic) at a holding potential of −70 mV and pCLAMP 10 data acquisition software (Molecular Devices). The bath solution contained 90 mM NaCl, 1 mM KCl, 1 mM MgCl2, 1 mM CaCl2, and 5 mM HEPES (pH 7.4), and the electrode filling solution contained 2 M KCl. Test solutions (100 μL) were applied to the oocytes at a speed of 300 μL/sec by means of the ScreeningTool (npi electronic) automated fast perfusion system. GABA EC3–7 was determined through a concentration–response experiment with GABA. A stock solution of compound 8 (100 mM) in DMSO was diluted with a bath solution containing GABA EC3–7 to obtain appropriate working solutions according to a validated protocol. Enhancement of the IGABA was defined as (I(GABA+Comp)/IGABA) – 1, where I(GABA+Comp) is the current response in the presence of a given compound, and IGABA is the control of the GABA-induced chloride current. Emax reflects the maximal IGABA enhancement. Concentration–response curves were generated, and the data were fitted by nonlinear regression analysis using Origin Software (OriginLab Corporation, USA) and are given as the means ± SEM of at least three oocytes from ≥2 batches. Diazepam (Sigma) and flumazenil (Sigma-Aldrich) were used as positive controls at 2 μM.

The target of another assay is T2, GABAA receptors α1β2 (Homo sapiens, UniProt P14867+P47870).
T2 construct: expressed in transfected cells; host or cells: Xenopus laevis oocytes, cRNA injection
T2 sequence (P14867 28-456): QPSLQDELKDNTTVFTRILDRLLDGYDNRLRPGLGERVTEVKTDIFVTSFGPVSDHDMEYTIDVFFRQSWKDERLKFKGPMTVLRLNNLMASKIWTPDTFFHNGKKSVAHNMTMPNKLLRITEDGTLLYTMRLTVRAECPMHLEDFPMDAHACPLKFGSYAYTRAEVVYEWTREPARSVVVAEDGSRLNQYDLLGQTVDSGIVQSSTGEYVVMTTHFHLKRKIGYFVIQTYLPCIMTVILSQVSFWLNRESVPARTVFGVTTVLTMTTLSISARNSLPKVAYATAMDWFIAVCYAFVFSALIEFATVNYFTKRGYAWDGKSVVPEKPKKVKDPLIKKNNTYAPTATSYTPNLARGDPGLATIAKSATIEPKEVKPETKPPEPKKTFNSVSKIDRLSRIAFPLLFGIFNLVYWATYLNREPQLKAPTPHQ
T2 sequence (P47870 25-512 limits assumed): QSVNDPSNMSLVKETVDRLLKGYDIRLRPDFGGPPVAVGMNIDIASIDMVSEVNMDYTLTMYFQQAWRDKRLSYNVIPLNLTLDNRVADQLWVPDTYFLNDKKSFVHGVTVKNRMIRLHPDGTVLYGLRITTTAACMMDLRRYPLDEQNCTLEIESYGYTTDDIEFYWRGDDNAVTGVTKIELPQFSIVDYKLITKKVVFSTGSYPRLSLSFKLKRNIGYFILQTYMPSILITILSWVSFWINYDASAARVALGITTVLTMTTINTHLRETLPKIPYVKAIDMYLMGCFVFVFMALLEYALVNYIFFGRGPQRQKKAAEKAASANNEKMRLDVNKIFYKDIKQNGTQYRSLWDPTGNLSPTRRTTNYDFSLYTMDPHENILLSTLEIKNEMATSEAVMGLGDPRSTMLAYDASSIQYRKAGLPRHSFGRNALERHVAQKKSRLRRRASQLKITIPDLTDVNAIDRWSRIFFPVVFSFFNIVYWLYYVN
Nature of the assay: Two-microelectrode voltage clamp assay with Xenopus laevis oocytes (α1β2). It counts as cell-based. The conditions noted are these: α1β2, in the presence of GABA EC3–7, n = 3. As for the experimental part: as §1, with “Concentration–response curves were generated, and the data were fitted by nonlinear regression analysis using Origin Software (OriginLab Corporation, USA) and are given as the means ± SEM of at least three oocytes from ≥2 batches. Diazepam (Sigma) and flumazenil (Sigma-Aldrich) were used as positive controls at 2 μM.” left out

Another assay has as its system GABAA receptors. Also on record: method as in PMID 17585957. The conditions noted are these: Xenopus oocyte assay; cited from earlier work.

T1 sequence (P18507 40-467 isoform P18507-1 limits assumed, one chain of several): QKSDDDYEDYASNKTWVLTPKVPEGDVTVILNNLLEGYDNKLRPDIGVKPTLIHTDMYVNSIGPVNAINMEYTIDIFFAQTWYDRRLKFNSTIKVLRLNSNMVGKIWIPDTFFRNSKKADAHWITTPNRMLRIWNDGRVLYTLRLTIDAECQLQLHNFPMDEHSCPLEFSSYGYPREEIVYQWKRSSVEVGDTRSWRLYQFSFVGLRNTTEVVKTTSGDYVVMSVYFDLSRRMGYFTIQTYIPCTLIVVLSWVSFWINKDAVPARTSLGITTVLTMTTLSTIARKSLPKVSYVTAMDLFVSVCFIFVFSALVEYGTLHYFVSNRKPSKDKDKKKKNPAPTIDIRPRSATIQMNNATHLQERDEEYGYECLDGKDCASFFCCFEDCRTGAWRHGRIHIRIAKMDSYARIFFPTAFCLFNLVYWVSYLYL
GABAA receptor with the α1β2γ2 subunit composition, sequence (P18507 40-475, one chain of several): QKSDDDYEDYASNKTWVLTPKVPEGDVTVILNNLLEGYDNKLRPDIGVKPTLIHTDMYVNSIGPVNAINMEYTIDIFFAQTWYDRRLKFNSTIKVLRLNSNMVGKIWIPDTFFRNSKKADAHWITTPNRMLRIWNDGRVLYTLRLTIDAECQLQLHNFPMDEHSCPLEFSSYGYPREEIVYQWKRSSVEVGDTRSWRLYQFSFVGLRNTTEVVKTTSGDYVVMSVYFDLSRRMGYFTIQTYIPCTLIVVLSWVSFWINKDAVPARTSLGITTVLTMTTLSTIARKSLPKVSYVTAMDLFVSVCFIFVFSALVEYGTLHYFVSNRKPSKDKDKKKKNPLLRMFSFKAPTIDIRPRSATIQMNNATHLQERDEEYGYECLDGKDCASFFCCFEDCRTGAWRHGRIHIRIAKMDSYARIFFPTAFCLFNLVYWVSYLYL

On to “pregnenolone sulfate [PREGS, reference compound]”, for which the “effect of PREGS on GABA signal with 8, highest concentration” value in assay [1] (8 (10 μM) with PREGS 10 μM, 2 μM GABA) is reported as “decrease of the GABA signal”. Besides, the “effect of PREGS on GABA signal with 8, lower concentrations” value in assay [1] (8 (10 μM) with PREGS at lower concentrations (<10 μM), 2 μM GABA) was “no effect”. Moreover, in assay [1] (allopregnanolone 0.5 μM, PREGS 0.001–100 μM), the “effect on activation by allopregnanolone” value is “abrogated”.

For `C=C/C(C)=C/C[C@]1(C)[C@H](C)C[C@H](OC)[C@]23C(=C[C@H](OC(=O)CC)C[C@@H]12)[C@@H](OC(C)=O)O[C@H]3OC(C)=O` [Compound 9, (2R)-Propanoyloxy-(6R)-methoxy-18R,19S-diacetoxyzuelanin], the “% activation at single concentration” value in assay [1] (in the presence of 2 μM GABA) is given as “no discernible activity”.

`C=C/C(C)=C/C[C@]1(C)[C@H](C)C[C@H](O)[C@]23C(=C[C@@H](OC(C)=O)C[C@@H]12)[C@@H](OC(C)=O)O[C@H]3OC(C)=O` [Compound 3, Corymbotin D]: the “% activation at single concentration” value in assay [1] (in the presence of 2 μM GABA) was “significantly enhanced”.

For the compound `CCO` [ethanol, reference compound], the “activation of the GABA signal” value in assay [1] (concentrations up to 640 mM, in presence of 2 μM GABA) was “no activation”.

As usually defined, the EC50 is the concentration needed to bring the measured effect to its halfway point. The term Emax denotes the maximal effect, on the per cent scale that the assay sets. Consider `C=C/C(C)=C/C[C@]1(C)[C@H](C)C[C@H](OC)[C@]23C(=C[C@@H](OC(C)=O)C[C@@H]12)[C@@H](OC(C)=O)O[C@H]3OC(C)=O` [Compound 8, Corimbotin A], for which the “% activation at single concentration” value in assay [1] (in the presence of 2 μM GABA) is “significantly enhanced”. In assay [1] (8 (5 μM) with flumazenil 0.001–10 μM, 2 μM GABA), the “activation by 8 in the presence of flumazenil” value is “not abrogated”. Besides, the combination with allopregnanolone entry in assay [1] (8 (0.5–4.0 μM) with allopregnanolone (0.25 μM), 2 μM GABA) was “additive effects”. Also, the combination with diazepam entry in assay [1] (8 (0.5–8 μM) with diazepam (2 μM), 2 μM GABA) is reported as “additive effect”. The “potentiation of the GABA signal by etazolate in combination with 8” value in assay [1] (etazolate (2 μM) with 8 (0.5–8 μM), 2 μM GABA) is listed as “further increased”. For the same compound, the “IGABA stimulation by 8 in the presence of flumazenil” value at GABAA receptors α1β2γ2S (8 (50 μM), flumazenil (2 μM)) is listed as “not prevented”. Besides, the EC50 at GABAA receptors α1β2γ2S (α1β2γ2S, in the presence of GABA EC3–7, n = 3, read-out: EC50, potentiation of GABA-induced chloride currents (IGABA)) is 43.6 µM; at GABAA receptors α1β2 (read-out: EC50, potentiation of GABA-induced chloride currents (IGABA)) it was 57.6 µM. Moreover, the Emax at GABAA receptors α1β2γ2S (α1β2γ2S, in the presence of GABA EC3–7, n = 3, read-out: Emax, maximal IGABA enhancement) is 809%; on GABAA receptors α1β2 (read-out: Emax, maximal IGABA enhancement), 534%.

For the compound `CN1C(=O)CN=C(c2ccccc2)c2cc(Cl)ccc21` [diazepam], in the assay with GABAA receptors, the “maximal potentiation (Emax)” value is on record as around 200%.

`C=C/C(C)=C/C[C@]1(C)[C@H](C)C[C@H](O)[C@@]2(C=O)C(C=O)=C[C@@H](OC(C)=O)C[C@@H]12` [Compound 1, (5S,8R,9R,10S)-2S-Acetoxy-6S-hydroxyclerod-3,12,14-trien-18,19-dial]: the “% activation at single concentration” value in assay [1] (in the presence of 2 μM GABA) is reported as around 40%.

For `C=C/C(C)=C/C[C@]1(C)[C@H](C)C[C@H](OC)[C@@]2(C=O)C(C=O)=C[C@@H](OC(C)=O)C[C@@H]12` [Compound 5, (5S,8R,9R,10S)-2S-Acetoxy-6S-methoxyclerod-3,12,14-trien-18,19-dial], the “% activation at single concentration” value in assay [1] (in the presence of 2 μM GABA) is on record as around 40%.

In the case of `C=C/C(C)=C/CC1(C)C(C)CC(OC(C)=O)C23C(=CC(OC(C)=O)CC12)C(OC(C)=O)OC3OC(C)=O` [Compound 7, (2S,6S,18S,19S)-Tetraacetoxyzuelanin], in assay [1] (in the presence of 2 μM GABA), the “% activation at single concentration” value is “significantly enhanced”. In assay [1] (in the presence of 2 μM GABA, CHO cells α1β2γ2, read-out: EC50, positive allosteric modulation of the GABA signal), the EC50 worked out at 4.6 µM.

In the case of `CCOC(=O)c1ncn2c1CN(C)C(=O)c1cc(F)ccc1-2` [flumazenil, reference compound], the “effect on potentiation of the GABA signal by diazepam” value in assay [1] (diazepam 2 μM, flumazenil 0.001–100 μM, concentration-dependent) is “abolished”.

Consider `C=C/C(C)=C/C[C@]1(C)[C@H](C)C[C@H](O)[C@]23C(=C[C@H](OC(=O)C(=C)C)C[C@@H]12)[C@@H](OC)O[C@H]3OC(C)=O` [Compound 6, (2R)-2-Methylpropenoyloxy-6S-hydroxy-18S-methoxy-19S-acetoxyzuelanin], for which the “% activation at single concentration” value in assay [1] (in the presence of 2 μM GABA) is on record as “no discernible activity”.

For the compound `C=C/C(C)=C/C[C@]1(C)[C@H](C)C[C@H](O)[C@]23C(=C[C@H](OC(=O)C(=C)C)C[C@@H]12)[C@@H](OC(C)=O)O[C@H]3OC(C)=O` [Compound 4, Corymbotin F], the “% activation at single concentration” value in assay [1] (in the presence of 2 μM GABA) is “no discernible activity”.

Take `C=C/C(C)=C/C[C@]1(C)[C@H](C)C[C@H](O)[C@]23C(=C[C@@H](OC(C)=O)C[C@@H]12)[C@@H](OC)O[C@H]3OC(C)=O` [Compound 2, Graveospene H]: in assay [1] (in the presence of 2 μM GABA), the “% activation at single concentration” value was “no discernible activity”.
